Test results reported in patent publication US20110171171A1, “BRIDGED SECONDARY AMINES AND USE THEREOF AS IAP BIR DOMAIN BINDING COMPOUNDS” (Aegera Therapeutics, Inc., priority 2008, published 2011).

What was measured:
Format in all cases: cell-based
[1] = system: Colorectal carcinoma HCT116 cells; test: HCT116 + ETR1 cell death assay (MTT, 72 hours); details: with HGS ETR1 40 ng/ml
Protocol: Colorectal carcinoma HCT116 cells were cultured as monolayers in 96 well plates at a density of 2000 cells per well in McCoy's 5a medium (HyClone) supplemented with 2.2 g/L sodium bicarbonate (Gibco), 10% FBS (HyClone) and 1% penecillin/streptomycin (HyClone). 24 hours later, triplicate wells were treated with HGS ETR1 (40 ng/ml) in combination with compound. Cells were incubated in the presence of compound and HGS agonistic Trail receptor antibody, ETR1 (Mapatumamab, 40 ng/ml) for 72 hours. Metabolic viability of remaining cells was assessed by MTT (thiazolyl blue tetrazolium bromide, Sigma) assay.
(§1) EC50 values (50% cell survival in the presence of compound as compared to untreated controls) were calculated from survival curves using BioAssay software (CambridgeSoft, HCT116 and SKOV3 SAR) and GraphPad Prism (Graph Pad Software Inc., Synoviocyte SAR).

[2] = system: Ovarian adenocarcinoma SKOV3 cells; test: SKOV3 cell death assay (MTT, 72 hours); details: Homo sapiens, SK-OV-3, compound alone
Protocol: Ovarian adenocarcinoma SKOV3 cells were cultured as monolayers in McCoy's 5a medium (HyClone) supplemented with 2.2 g/L sodium bicarbonate (Gibco), 10% FBS (HyClone) and 1% penicillin/streptomycin (HyClone). Cells were seeded in 96 well plates at 5000 cells/well. After 24 hours in culture, cells were treated with compound. Cells were incubated in the presence of compound for 72 hours. Metabolic viability of remaining cells was assessed by MTT (thiazolyl blue tetrazolium bromide, Sigma) assay.
as §1

[3] = system: Rheumatoid arthritis human fibroblast-like synoviocytes (HFLS-RA); test: Synoviocytes + Fas antibody cell survival assay (Cell Titer-Glo); details: with 300 ng/ml anti-human CD95 (Fas) antibody CH-11, 72 hours, read-out: EC50 synoviocyctes + FAS
Protocol: Rheumatoid arthritis human fibroblast-like synoviocytes (HFLS-RA, Cell Applications Inc.) were seeded in 96-well plates at 3000 cells per well in complete synoviocyte growth medium (Cell Applications Inc.) one day prior to treatment. Triplicate wells were treated for 72 hours compound in combination with 300 ng/ml anti-human CD95 (Fas) antibody (clone CH-11, Beckman Coulter/Immunotech). Cell survival was measured by Cell Titer-Glo Luminescent Assay (Promega).
as §1

Compound: CN[C@@H](C)C(=O)N[C@H](C(=O)N1CCC[C@H]1CN(CCc1ccccc1)C(=O)CNC(=O)c1ccc(C(=O)NCC(=O)N(CCc2ccccc2)C[C@@H]2CCCN2C(=O)[C@@H](NC(=O)[C@H](C)NC)C2CCCCC2)cc1)C1CCCCC1 [Compound 1]
- EC50 [1]: < 100 nM
- EC50 [2]: < 100 nM

Compound: CN[C@@H](C)C(=O)N[C@H](C(=O)N1CCC[C@H]1CN(CCc1ccccc1)C(=O)CNC(=O)c1ccc2cc(C(=O)NCC(=O)N(CCc3ccccc3)C[C@@H]3CCCN3C(=O)[C@@H](NC(=O)[C@H](C)NC)C3CCCCC3)ccc2c1)C1CCCCC1 [Compound 3]
- EC50 [1]: < 100 nM
- EC50 [2]: < 100 nM

Compound: CN[C@@H](C)C(=O)N[C@H](C(=O)N1CCC[C@H]1CN(CCc1ccccc1)C(=O)CNC(=O)C1CCC(C(=O)NCC(=O)N(CCc2ccccc2)C[C@@H]2CCCN2C(=O)[C@@H](NC(=O)[C@H](C)NC)C2CCCCC2)CC1)C1CCCCC1 (stereo partly shown) [Compound 4]
- EC50 [1]: < 100 nM
- EC50 [2]: < 100 nM

Compound: CN[C@@H](C)C(=O)N[C@H](C(=O)N1CCC[C@H]1CN(CCc1ccc(F)cc1)C(=O)c1ccc(C(=O)N(CCc2ccc(F)cc2)C[C@@H]2CCCN2C(=O)[C@@H](NC(=O)[C@H](C)NC)C2CCCCC2)cc1)C1CCCCC1 [Compound 5]
- EC50 [1]: < 100 nM
- EC50 [2]: < 100 nM

Compound: CN[C@@H](C)C(=O)N[C@H](C(=O)N1CCC[C@H]1CN(CCc1ccc(F)cc1)C(=O)CNC(=O)c1ccc(C(=O)NCC(=O)N(CCc2ccc(F)cc2)C[C@@H]2CCCN2C(=O)[C@@H](NC(=O)[C@H](C)NC)C2CCCCC2)cc1)C1CCCCC1 [Compound 7]
- EC50 [1]: < 100 nM
- EC50 [2]: < 100 nM

Compound: CN[C@@H](C)C(=O)N[C@H](C(=O)N1CCC[C@H]1CN(CCc1ccc(F)cc1)C(=O)CNC(=O)c1ccc2cc(C(=O)NCC(=O)N(CCc3ccc(F)cc3)C[C@@H]3CCCN3C(=O)[C@@H](NC(=O)[C@H](C)NC)C3CCCCC3)ccc2c1)C1CCCCC1 [Compound 9]
- EC50 [1]: < 100 nM
- EC50 [2]: < 100 nM

Compound: CN[C@@H](C)C(=O)N[C@H](C(=O)N1CCC[C@H]1CN(CCc1ccc(F)cc1)C(=O)CNC(=O)C1CCC(C(=O)NCC(=O)N(CCc2ccc(F)cc2)C[C@@H]2CCCN2C(=O)[C@@H](NC(=O)[C@H](C)NC)C2CCCCC2)CC1)C1CCCCC1 (stereo partly shown) [Compound 10]
- EC50 [1]: < 100 nM

Compound: CN[C@@H](C)C(=O)N[C@H](C(=O)N1CCC[C@H]1CN(CCc1ccc(F)cc1)C(=O)c1ccc2cc(C(=O)N(CCc3ccc(F)cc3)C[C@@H]3CCCN3C(=O)[C@@H](NC(=O)[C@H](C)NC)C3CCCCC3)ccc2c1)C1CCCCC1 [Compound 11]
- EC50 [1]: < 100 nM
- EC50 [3]: < 100 nM

Compound: CN[C@@H](C)C(=O)N[C@H](C(=O)N1CCC[C@H]1CN(CCc1ccccc1)C(=O)c1ccc2cc(C(=O)N(CCc3ccccc3)C[C@@H]3CCCN3C(=O)[C@@H](NC(=O)[C@H](C)NC)C3CCCCC3)ccc2c1)C1CCCCC1 [Compound 12]
- EC50 [1]: < 100 nM

Compound: CN[C@@H](C)C(=O)N[C@H](C(=O)N1CCC[C@H]1CN(CCc1ccc(OC)cc1)C(=O)c1ccc2cc(C(=O)N(CCc3ccc(OC)cc3)C[C@@H]3CCCN3C(=O)[C@@H](NC(=O)[C@H](C)NC)C3CCCCC3)ccc2c1)C1CCCCC1 [Compound 13]
- EC50 [1]: > 100 nM

Compound: CN[C@@H](C)C(=O)N[C@H](C(=O)N1CCC[C@H]1CN(CCc1ccc(OC)cc1)C(=O)CNC(=O)c1ccc(-c2ccc(C(=O)NCC(=O)N(CCc3ccc(OC)cc3)C[C@@H]3CCCN3C(=O)[C@@H](NC(=O)[C@H](C)NC)C3CCCCC3)cc2)cc1)C1CCCCC1 [Compound 14]
- EC50 [1]: > 100 nM

Compound: CN[C@@H](C)C(=O)N[C@H](C(=O)N1CCC[C@H]1CN(C(=O)CNC(=O)c1ccc(-c2ccc(C(=O)NCC(=O)N(C[C@@H]3CCCN3C(=O)[C@@H](NC(=O)[C@H](C)NC)C3CCCCC3)C3Cc4ccccc4C3)cc2)cc1)C1Cc2ccccc2C1)C1CCCCC1 [Compound 15]
- EC50 [1]: < 100 nM

Compound: CN[C@@H](C)C(=O)N[C@H](C(=O)N1CCC[C@H]1CN(CCc1ccccc1)C(=O)c1ccc2cc(C(=O)N(CCc3ccccc3)C[C@@H]3CCCN3C(=O)[C@@H](NC(=O)[C@H](C)NC)C3CCCC3)ccc2c1)C1CCCC1 [Compound 16]
- EC50 [1]: < 100 nM
- EC50 [2]: < 100 nM

Compound: CN[C@@H](C)C(=O)N[C@H](C(=O)N1CCC[C@H]1CN(CCc1ccccc1)C(=O)c1ccc2cc(C(=O)N(CCc3ccccc3)C[C@@H]3CCCN3C(=O)[C@@H](NC(=O)[C@H](C)NC)c3ccccc3)ccc2c1)c1ccccc1 [Compound 24]
- EC50 [1]: < 100 nM

Compound: CN[C@@H](C)C(=O)N[C@H](C(=O)N1CCC[C@H]1CN(CCc1ccccc1)C(=O)c1ccc(-c2ccc(C(=O)N(CCc3ccccc3)C[C@@H]3CCCN3C(=O)[C@@H](NC(=O)[C@H](C)NC)c3ccccc3)cc2)cc1)c1ccccc1 [Compound 25]
- EC50 [1]: < 100 nM

Compound: CN[C@@H](C)C(=O)N[C@H](C(=O)N1CCC[C@H]1CN(CCc1ccccc1)C(=O)c1ccc2cc(C(=O)N(CCc3ccccc3)C[C@@H]3CCCN3C(=O)[C@@H](NC(=O)[C@H](C)NC)C3CCOCC3)ccc2c1)C1CCOCC1 [Compound 26]
- EC50 [1]: < 100 nM

Compound: CN[C@@H](C)C(=O)N[C@H](C(=O)N1CCC[C@H]1CN(CCc1ccccc1)C(=O)c1ccc(-c2ccc(C(=O)N(CCc3ccccc3)C[C@@H]3CCCN3C(=O)[C@@H](NC(=O)[C@H](C)NC)C3CCOCC3)cc2)cc1)C1CCOCC1 [Compound 27]
- EC50 [1]: < 100 nM

Compound: CN[C@@H](C)C(=O)N[C@H](C(=O)N1CCC[C@H]1CN(CCc1ccc(F)cc1)S(=O)(=O)c1ccc2cc(S(=O)(=O)N(CCc3ccc(F)cc3)C[C@@H]3CCCN3C(=O)[C@@H](NC(=O)[C@H](C)NC)C3CCCCC3)ccc2c1)C1CCCCC1 [Compound 28]
- EC50 [1]: < 100 nM

Compound: CN[C@@H](C)C(=O)N[C@H](C(=O)N1CCC[C@H]1CN(CCc1ccccc1)C(=O)CNC(=O)c1ccc(-c2ccc(C(=O)NCC(=O)N(CCc3ccccc3)C[C@@H]3CCCN3C(=O)[C@@H](NC(=O)[C@H](C)NC)C3CCCCC3)cn2)nc1)C1CCCCC1 [Compound 29]
- EC50 [1]: < 100 nM

Compound: CN[C@@H](C)C(=O)N[C@H](C(=O)N1CCC[C@H]1CN(CCc1ccccc1)C(=O)c1ccc(-c2ccc(C(=O)N(CCc3ccccc3)C[C@@H]3CCCN3C(=O)[C@@H](NC(=O)[C@H](C)NC)C3CCCCC3)cn2)nc1)C1CCCCC1 [Compound 30]
- EC50 [1]: < 100 nM

Compound: CN[C@@H](C)C(=O)N[C@H](C(=O)N1CCC[C@H]1CN(CCc1ccccc1)C(=O)[C@@H](C)NC(=O)c1ccc(-c2ccc(C(=O)N[C@H](C)C(=O)N(CCc3ccccc3)C[C@@H]3CCCN3C(=O)[C@@H](NC(=O)[C@H](C)NC)C3CCCCC3)cc2)cc1)C1CCCCC1 [Compound 31]
- EC50 [1]: < 100 nM

Compound: CN[C@@H](C)C(=O)N[C@H](C(=O)N1CCC[C@H]1CN(CCc1ccccc1)C(=O)CN(C)C(=O)c1ccc(-c2ccc(C(=O)N(C)CC(=O)N(CCc3ccccc3)C[C@@H]3CCCN3C(=O)[C@@H](NC(=O)[C@H](C)NC)C3CCCCC3)cc2)cc1)C1CCCCC1 [Compound 32]
- EC50 [1]: < 100 nM

Compound: CN[C@@H](C)C(=O)N[C@H](C(=O)N1CCC[C@H]1CN(CCc1ccccc1)C(=O)[C@H](C)NC(=O)c1ccc(-c2ccc(C(=O)N[C@@H](C)C(=O)N(CCc3ccccc3)C[C@@H]3CCCN3C(=O)[C@@H](NC(=O)[C@H](C)NC)C3CCCCC3)cc2)cc1)C1CCCCC1 [Compound 33]
- EC50 [1]: < 100 nM

Compound: CN[C@@H](C)C(=O)N[C@H](C(=O)N1CCC[C@H]1CN(CCc1ccccc1)C(=O)c1csc(-c2ccc(-c3nc(C(=O)N(CCc4ccccc4)C[C@@H]4CCCN4C(=O)[C@@H](NC(=O)[C@H](C)NC)C4CCCCC4)cs3)cc2)n1)C1CCCCC1 [Compound 34]
- EC50 [1]: < 100 nM

Compound: CN[C@@H](C)C(=O)N[C@H](C(=O)N1CCC[C@H]1CN(CCc1ccccc1)C(=O)c1csc(-c2ccc(-c3ccc(-c4nc(C(=O)N(CCc5ccccc5)C[C@@H]5CCCN5C(=O)[C@@H](NC(=O)[C@H](C)NC)C5CCCCC5)cs4)cc3)cc2)n1)C1CCCCC1 [Compound 35]
- EC50 [1]: < 100 nM

Compound: CN[C@H](C(=O)N[C@H](C(=O)N1CCC[C@H]1CN(CCc1ccccc1)C(=O)c1ccc(-c2ccc(C(=O)N(CCc3ccccc3)C[C@@H]3CCCN3C(=O)[C@@H](NC(=O)[C@@H](NC)C3CC3)C3CCCCC3)cc2)cc1)C1CCCCC1)C1CC1 [Compound 36]
- EC50 [1]: < 100 nM

Compound: CCN[C@@H](C)C(=O)N[C@H](C(=O)N1CCC[C@H]1CN(CCc1ccccc1)C(=O)c1ccc(-c2ccc(C(=O)N(CCc3ccccc3)C[C@@H]3CCCN3C(=O)[C@@H](NC(=O)[C@H](C)NCC)C3CCCCC3)cc2)cc1)C1CCCCC1 [Compound 37]
- EC50 [1]: < 100 nM

Compound: CCCN[C@@H](C)C(=O)N[C@H](C(=O)N1CCC[C@H]1CN(CCc1ccccc1)C(=O)c1ccc(-c2ccc(C(=O)N(CCc3ccccc3)C[C@@H]3CCCN3C(=O)[C@@H](NC(=O)[C@H](C)NCCC)C3CCCCC3)cc2)cc1)C1CCCCC1 [Compound 38]
- EC50 [1]: < 100 nM

Compound: CC[C@H](NC)C(=O)N[C@H](C(=O)N1CCC[C@H]1CN(CCc1ccccc1)C(=O)c1ccc(-c2ccc(C(=O)N(CCc3ccccc3)C[C@@H]3CCCN3C(=O)[C@@H](NC(=O)[C@H](CC)NC)C3CCCCC3)cc2)cc1)C1CCCCC1 [Compound 39]
- EC50 [1]: < 100 nM
